Assay results from patent US20240262795A1, “PYRAZINE COMPOUNDS AS INHIBITORS OF FLT3” (Biomea Fusion, Inc., priority 2021, published 2024).

Assays:
MOLM-13 = assay: Proliferation inhibition, CellTiter-Glo, MOLM-13; assay type: cell-based, human; details: Homo sapiens, 96 h; MOLM-13 cells, IC50 (4 days), CellTiter-Glo; read-out: MOLM-13 IC50
Method in brief: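 About 10,000 cells per well in RPMI-1640 with 10% FBS. Compounds added 2 h after seeding at eight concentrations in duplicate (0.2% DMSO as 100% proliferation), then incubated ~96 h at 37° C, 5% CO2. ATP measured by CellTiter-Glo luminescence; IC50 from four-parameter logistic fit.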

[1] = target: T1, Ba/F3 cell lines stably expressing human FLT3-ITD (Homo sapiens, UniProt P36888, cells depend on it, form not given); assay: FLT3 mutant assay, cell viability, Ba/F3-FLT3-ITD; assay type: cell-based, mouse; details: IC50 (3 days), CellTiter-Glo; read-out: Ba/F3-FLT3-ITD Relative IC50
T1 sequence (P36888 1-993): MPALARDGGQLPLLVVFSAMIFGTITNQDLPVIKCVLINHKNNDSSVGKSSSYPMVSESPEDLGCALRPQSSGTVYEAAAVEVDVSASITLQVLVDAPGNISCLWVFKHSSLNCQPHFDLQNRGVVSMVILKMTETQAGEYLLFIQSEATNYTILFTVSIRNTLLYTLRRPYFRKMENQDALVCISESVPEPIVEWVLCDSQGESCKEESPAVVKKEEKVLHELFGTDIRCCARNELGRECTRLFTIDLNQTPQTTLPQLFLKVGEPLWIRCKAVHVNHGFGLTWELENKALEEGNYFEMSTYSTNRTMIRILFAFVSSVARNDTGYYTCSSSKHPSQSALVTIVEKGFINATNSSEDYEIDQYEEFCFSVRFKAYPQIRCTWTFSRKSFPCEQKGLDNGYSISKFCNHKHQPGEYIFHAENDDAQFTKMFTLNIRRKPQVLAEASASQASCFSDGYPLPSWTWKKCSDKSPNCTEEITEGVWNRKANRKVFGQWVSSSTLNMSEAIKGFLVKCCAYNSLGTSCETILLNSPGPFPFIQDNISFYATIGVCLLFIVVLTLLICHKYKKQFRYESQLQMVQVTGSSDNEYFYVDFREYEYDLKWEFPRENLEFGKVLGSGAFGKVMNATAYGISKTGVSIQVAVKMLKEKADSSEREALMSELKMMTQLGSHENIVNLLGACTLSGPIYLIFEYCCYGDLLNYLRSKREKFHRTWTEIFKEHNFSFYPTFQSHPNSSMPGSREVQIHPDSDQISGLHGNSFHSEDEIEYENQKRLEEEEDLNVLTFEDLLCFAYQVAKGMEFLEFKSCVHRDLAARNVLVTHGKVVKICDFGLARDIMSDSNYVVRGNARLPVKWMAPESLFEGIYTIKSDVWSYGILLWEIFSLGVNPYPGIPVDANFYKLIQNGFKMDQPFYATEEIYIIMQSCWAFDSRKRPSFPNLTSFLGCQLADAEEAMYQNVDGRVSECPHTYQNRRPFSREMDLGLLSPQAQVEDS
Protocol: Activity of compounds on FLT3 activating mutations were assessed using Ba/F3 cell lines (mouse pro-B cell line) stably expressing human FLT3-ITD, FLT3-ITD-D835Y or FLT3-ITD-F691L. […] The supernatant collected were concentrated with PEG8000 and used to infect Ba/F3 cells at 1-5 MOI in serum-free media with polybrene. Infected Ba/F3 cells were selected in presence of puromycin, and surviving cells verified by sequencing and/or protein detection assay. Constitutive expression of the activating kinase transforms the Ba/F3 cells into IL-3-independent growth allowing them to be cultured in the absence of IL-3. […] For use in compound testing, cells in exponential growth phase were harvested, counted, and resuspended at the required cell density. Cell viability assays were performed in 96-well assay plates and 90 μL of cell suspension seeded per well. Serial dilutions of the test compounds and assay controls and were freshly prepared for the assay. Nine-point 3× serial dilutions were prepared in 100% DMSO (400× stock) and subsequently diluted in cell culture media to obtain 10× stocks. Ten microliters of the 10× stock serial dilutions were added to the appropriate wells (triplicate wells per condition) in the assay plate. […] Assay plates were incubated for 3 days in at 37° C. in a humidified incubator with 5% CO2.
Inhibition rate (IR) of the tested compounds was determined by the following formula: IR (%)=(1−(RLU compound−RLU blank)/(RLU control−RLU blank))*100%. The inhibitions of different dose of compound were calculated in Excel file, and the dose responses were analysed using GraphPad Prism to evaluate related parameters, such as Bottom, Top and IC50. For the IC50 analysis by GraphPad Prism, the equation below was used to fit curve: Y=Bottom+(Top−Bottom)/(1+10^((LogIC50−X)*HillSlope))

IC50 (MOLM-13) [nM] | SMILES | GI50 [1] [nM]
< 1 | CCc1nc(C(N)=O)c(Nc2cccc([C@@H](C)CNC(=O)CN(C)C(=O)/C=C/CN3CCC3)c2)nc1C1CC1 [Compound 506, (R,E)-3-((3-(1-(2-(4-(azetidin-1-yl)-N-methylbut-2-enamido)acetamido)propan-2-yl)phenyl)amino)-5-cyclopropyl-6-ethylpyrazine-2-carboxamide] | 1 to 10
< 1 | CCCc1nc(Nc2cccc([C@@H](C)CNC(=O)CN(C)C(=O)/C=C/CN3CCC3)c2)c(C(N)=O)nc1CC [Compound 507, (R,E)-3-((3-(1-(2-(4-(azetidin-1-yl)-N-methylbut-2-enamido)acetamido)propan-2-yl)phenyl)amino)-6-ethyl-5-propylpyrazine-2-carboxamide] | 1 to 10
> 500 | CCc1nc(Nc2cccc([C@@H](C)CNC(=O)CN(C)C(=O)/C=C/CN3CCC3)c2)c(C(N)=O)nc1CC [Compound 508, (R, E)-3-((3-(1-(2-(4-(azetidin-1-yl)-N-methylbut-2-enamido)acetamido)propan-2-yl)phenyl)amino)-5,6-diethylpyrazine-2-carboxamide] | 1 to 10
1 to 10 | CCc1nc(C(N)=O)c(Nc2cc(F)cc(CCNC(=O)CN(C)C(=O)/C=C/CN3CCC3)c2)nc1C1CC1 [Compound 516, (E)-3-((3-(2-(2-(4-(azetidin-1-yl)-N-methylbut-2-enamido)acetamido)ethyl)-5-fluorophenyl)amino)-5-cyclopropyl-6-ethylpyrazine-2-carboxamide] | 1 to 10
< 1 | CCc1nc(C(N)=O)c(Nc2cccc(CCNC(=O)CN(C)C(=O)/C=C/CN3CCC3)c2)nc1N(C)CC [Compound 516A, (E)-3-((3-(2-(2-(4-(azetidin-1-yl)-N-methylbut-2-enamido)acetamido)ethyl)phenyl)amino)-6-ethyl-5-(ethyl(methyl)amino) pyrazine-2-carboxamide] | 1 to 10
< 1 | CCc1nc(C(N)=O)c(Nc2cccc([C@@H](C)CNC(=O)CN(C)C(=O)/C=C/CN3CCC3)c2)nc1N(C)CC [Compound 518, (R,E)-3-((3-(1-(2-(4-(azetidin-1-yl)-N-methylbut-2-enamido)acetamido)propan-2-yl)phenyl)amino)-6-ethyl-5-(ethyl(methyl)amino)pyrazine-2-carboxamide] | 1 to 10
1 to 10 | CCOc1nc(Nc2cccc(CCNC(=O)CN(C)C(=O)/C=C/CN3CCC3)c2)c(C(N)=O)nc1CC [Compound 602, (E)-3-((3-(2-(2-(4-(azetidin-1-yl)-N-methylbut-2-enamido)acetamido)ethyl)phenyl)amino)-5-ethoxy-6-ethylpyrazine-2-carboxamide] | 1 to 10
1 to 10 | CCc1nc(C(N)=O)c(Nc2cccc(CCNC(=O)CN(C)C(=O)/C=C/CN3CCC3)c2)nc1OC(C)C [Compound 603, (E)-3-((3-(2-(2-(4-(azetidin-1-yl)-N-methylbut-2-enamido)acetamido)ethyl)phenyl)amino)-6-ethyl-5-isopropoxypyrazine-2-carboxamide] | 1 to 10
1 to 10 | CCc1nc(C(N)=O)c(Nc2ccc(N3CCC(N4CCN(C)CC4)CC3)c(OC)c2)nc1NC1CCOCC1 [Gilteritinib, gilteritinib, reference compound] | 

The next lines start with the compound.

SMILES | IC50 (MOLM-13) [nM] | GI50 [1] [nM]
CCc1nc(C(N)=O)c(Nc2cccc(CCNC(=O)[C@H](C)N(C)C(=O)/C=C/CN(C)C)c2)nc1N(C)C(C)C [Compound 204, (S,E)-3-((3-(2-(2-(4-(dimethylamino)-N-methylbut-2-enamido)propanamido)ethyl)phenyl)amino)-6-ethyl-5-(isopropyl(methyl)amino)pyrazine-2-carboxamide] | < 1 | 1 to 10
CCc1nc(C(N)=O)c(Nc2cccc(CCNC(=O)[C@H](C)N(C)C(=O)/C=C/CN(C)C)c2)nc1NC(C)C [Compound 205, (S,E)-3-((3-(2-(2-(4-(dimethylamino)-N-methylbut-2-enamido)propanamido)ethyl)phenyl)amino)-6-ethyl-5-(isopropylamino)pyrazine-2-carboxamide] | < 1 | < 1
CCc1nc(C(N)=O)c(Nc2cccc(CCNC(=O)CN(C)C(=O)/C=C/CN(C)C)c2)nc1C1CC1 [Compound 219, (E)-5-cyclopropyl-3-((3-(2-(2-(4-(dimethylamino)-N-methylbut-2-enamido)acetamido)ethyl)phenyl)amino)-6-ethylpyrazine-2-carboxamide] | < 1 | 1 to 10
Cc1nc(C(N)=O)c(Nc2cccc(CCNC(=O)[C@H](C)N(C)C(=O)/C=C/CN(C)C)c2)nc1N(C)C(C)C [Compound 232, (S, E)-3-((3-(2-(2-(4-(dimethylamino)-N-methylbut-2-enamido)propanamido)ethyl)phenyl)amino)-5-(isopropyl (methyl)amino)-6-methylpyrazine-2-carboxamide] | 1 to 10 | 1 to 10
Cc1nc(C(N)=O)c(Nc2cccc(CCNC(=O)CN(C)C(=O)/C=C/CN(C)C)c2)nc1N(C)C(C)C [Compound 250, (E)-3-((3-(2-(2-(4-(dimethylamino)-N-methylbut-2-enamido)acetamido)ethyl)phenyl)amino)-5-(isopropyl(methyl)amino)-6-methylpyrazine-2-carboxamide] | 1 to 10 | 1 to 10
CCc1nc(C(N)=O)c(Nc2cccc(CCNC(=O)CN(C)C(=O)/C=C/CN(C)C)c2)nc1N(C)CC [Compound 252, (E)-3-((3-(2-(2-(4-(dimethylamino)-N-methylbut-2-enamido)acetamido)ethyl)phenyl)amino)-6-ethyl-5-(ethyl (methyl)amino) pyrazine-2-carboxamide] | < 1 | < 1
CCc1nc(C(N)=O)c(Nc2cccc(CCNC(=O)[C@H](C)N(C)C(=O)/C=C/CNC)c2)nc1N(C)C(C)C [Compound 307, (S,E)-6-ethyl-5-(isopropyl(methyl)amino)-3-((3-(2-(2-(N-methyl-4-(methylamino)but-2-enamido)propanamido)ethyl)phenyl)amino)pyrazine-2-carboxamide] | < 1 | 1 to 10
CCc1nc(C(N)=O)c(Nc2ccnc(CCNC(=O)[C@H](C)N(C)C(=O)/C=C/CN(C)C)c2)nc1C1CC1 [Compound 310, (S,E)-5-cyclopropyl-3-((2-(2-(2-(4-(dimethylamino)-N-methylbut-2-enamido)propanamido)ethyl)pyridin-4-yl)amino)-6-ethylpyrazine-2-carboxamide] | 1 to 10 | 1 to 10
CCc1nc(C(N)=O)c(Nc2cccc([C@@H](C)CNC(=O)CN(C)C(=O)/C=C/CN(C)C)c2)nc1C1CC1 [Compound 504, (R,E)-5-cyclopropyl-3-((3-(1-(2-(4-(dimethylamino)-N-methylbut-2-enamido)acetamido)propan-2-yl)phenyl)amino)-6-ethylpyrazine-2-carboxamide] | < 1 | 1 to 10
